We go through 1 compound from US11472814B2, “Thienopyranones and furanopyranones as checkpoint inhibitors and modulators of anti-tumor immunity” (SignalRx Pharmaceuticals, Inc., priority 2017, dated 2022).

Where “and” joins values, the source holds several entries; their conditions need not be identical. Equal entries are not always repeated.

One assay concerns T cells in LLC tumors. As to the kind of experiment: Quantification of CD3+, CD4+ and CD8+ T cells in LLC tumors. It is filed as in vivo, mice. The source says: Quantification of CD3+, CD4+ and CD8+ T cells in the LLC tumors treated with Compound 3 (n=3, *p<0.05, t test). Conclusion: Compound 3 decreased CD4+ cells by 50% and increased CD8+ T cells in the tumor compartment by 7% in vivo as compared to vehicle control treated mice.

Another assay addresses T1, PI3K α (Homo sapiens, UniProt P42336).
T1 construct: purchased Thermo Fisher Scientific-Biosciences Life Sciences Solutions, Madison, Wis; (contract assay service)
As to the kind of experiment: PI3K alpha inhibition IC50 (Thermo Fisher). Format: biochemical. Particulars: 10-point curve. The source says:
(§1) The inhibitory activity of a compound of the invention against PI3K and/or BRD4 and/or SYK and/or CDK4/6 can be readily determined using methods known to the skilled artisan, or by commercial vendors offering such services. […] In vivo, PI3K inhibition can be determined from target tissue biopsies by standard tissue processing to disrupt cells and then performing Western Blot analysis to determine the presence or absence of pAKT (substrate of PI3K) relative to a control sample. The activity of a compound of the invention as an inhibitor of a bromodomain-containing protein, such as a BET protein, such as BRD2, BRD3, BRD4, and/or BRDT, or an isoform or mutant thereof, may be determined in vitro, in vivo, or in a cell line. In vitro assays include assays that determine inhibition of bromodomain-containing proteins. Alternatively, inhibitor binding may be determined by running a competition experiment where a provided compound is incubated with a bromodomain-containing protein, such as a BET protein bound to known ligands, labeled or unlabeled. For example, bromodomain inhibition can be determined in vitro using Alpha Screen Technology (http://www.reactionbiologv.com/webapps/site/NewsPDFs/Bromodomain%20Assay %20Platform %20for %20Drug %20Screening %20and %20Discovery.pdf). In vivo bromodomain inhibition can be determined indirectly by evaluating the amount of protein present of proteins whose genes' transcription is influenced or controlled by the bromodomain protein, for example, the MYCN protein transcription is controlled by BRD4 (J. E. Delmore et al., Cell 2011, 146, 904-917; A. Puissant, Cancer Discov. 2013, 3, 308-323). Bromodomain inhibition may also be predicted by in silico modeling as described below in the Examples. Additionally, the company Promega offers a SYK luminescent assay to determine a compound's ability to inhibit the SYK protein (https://www.promega.com/-/media/files/resources/protocols/kinase-enzyme-appnotes/syk-kinase-assay-protocol.pdf?la=en).
(§2) Compounds of the invention were characterized for their ability to inhibit target proteins using third party vendors offering such services. PI3K alpha, gamma, and delta inhibition activity was determined by Thermo Fisher Scientific-Biosciences Life Sciences Solutions, Madison, Wis. The bromodomain protein inhibition (binding domain 1 and 2 of BRD4) as well as SYK inhibition was determined at Reaction Biology Corp., Malvern, Pa. […] The IC50 data (shown below in Table 5) was calculated from a 10-point curve and is expressed in nanomolar concentration (nM) rounded off to the nearest whole number. […]

The test system of another assay is T cells in CT26 tumors. As to the kind of experiment: Flow cytometric quantification of T cells infiltrating CT26 tumors. It is filed as in vivo, mice. Here is the method:
Effect of Compound 3 treatment of CT26 tumor bearing mice in vivo 3 mg/kg by intraperitoneal injection QD (IP) for 14 days on number of CD3+/CD8+ T cells infiltrating the tumor tissue. Conclusion: Compound 3 increased CD8+ T cells in the tumor compartment by 800% in vivo. (n=6, p<0.001, t test) as compared to vehicle control treated mice.
Values represent mean±SEM. Conclusion: Compound 3 decreased CD4+ T cells by 5.6-fold and increased CD8+ T cells in the tumor compartment by 6% in vivo as compared to vehicle control treated mice.

A further assay deals with CT26 tumors. As to the kind of experiment: CT26 tumor growth in immunocompetent Balb/c mice. It is filed as in vivo. The source says:
We investigated the effect of Compound 3 on immune cell in vitro and on tumor growth in in vivo in immunocompetent syngeneic tumor models and the effects on the macrophage and T cell immune compartment in vivo by this compound. […] In order to distinguish whether Compound 3 blocks tumor growth due to its effect on immune cell compartment and not on tumor compartment, we tested the effect of this chemotype on CT26 tumor growth in immunodeficient NSG mice vs immunocompetent Balb/c mice. […] Compound 3 has combinatorial immune-oncologic activity in vivo to stimulate anti-cancer innate and adaptive immunity in well-defined accepted immune competent murine models for cancer immunotherapy.
Tumor volumes of CT26 inoculated subcutaneously in Balb/c mice treated with 3 mg/Kg Compound 3, or 200 ug anti-PDL1 or both. Conclusion: Compound 3 has greater antitumor immune activating activity as compared to anti-PDL1 monoclonal antibody treatment in this in vivo immune-oncology model. Compound 3 suppressed tumor growth by 88% in this model (n=6, p<0.001, t test) as compared to vehicle control treated mice.
Conclusion: this establishes effect of Compound 3 as immune-oncologically active agent in cancer immunotherapy. In immunocompetent mice with same tumor cell ino kculum Compound 3 inhibited CT26 tumor growth by 58% decrease in tumor volume. (n=x, p<0.001, t test).
In contrast to above data, Compound 3 has a marked significant inhibitory effect on CT26, LLC and MC38 tumor growth in immunocompetent murine models. Conclusion: this establishes effect of Compound 3 as immune-oncologically active agent in cancer immunotherapy. In immunocompetent mice with same tumor cell inoculum Compound 3 inhibited tumor growth by from 58-68%. p<0.001 in all experiments compared to vehicle control.

A further assay addresses T2, PI3K γ (Homo sapiens, UniProt P48736).
T2 construct: purchased Thermo Fisher Scientific-Biosciences Life Sciences Solutions, Madison, Wis; (contract assay service)
As to the kind of experiment: PI3K gamma inhibition IC50 (Thermo Fisher). Format: biochemical. Particulars: 10-point curve.
Source text: as §1, §2

Setting [1] is: CT26 tumors, flow cytometry, vs vehicle.

T2 sequence (P48736 whole entry): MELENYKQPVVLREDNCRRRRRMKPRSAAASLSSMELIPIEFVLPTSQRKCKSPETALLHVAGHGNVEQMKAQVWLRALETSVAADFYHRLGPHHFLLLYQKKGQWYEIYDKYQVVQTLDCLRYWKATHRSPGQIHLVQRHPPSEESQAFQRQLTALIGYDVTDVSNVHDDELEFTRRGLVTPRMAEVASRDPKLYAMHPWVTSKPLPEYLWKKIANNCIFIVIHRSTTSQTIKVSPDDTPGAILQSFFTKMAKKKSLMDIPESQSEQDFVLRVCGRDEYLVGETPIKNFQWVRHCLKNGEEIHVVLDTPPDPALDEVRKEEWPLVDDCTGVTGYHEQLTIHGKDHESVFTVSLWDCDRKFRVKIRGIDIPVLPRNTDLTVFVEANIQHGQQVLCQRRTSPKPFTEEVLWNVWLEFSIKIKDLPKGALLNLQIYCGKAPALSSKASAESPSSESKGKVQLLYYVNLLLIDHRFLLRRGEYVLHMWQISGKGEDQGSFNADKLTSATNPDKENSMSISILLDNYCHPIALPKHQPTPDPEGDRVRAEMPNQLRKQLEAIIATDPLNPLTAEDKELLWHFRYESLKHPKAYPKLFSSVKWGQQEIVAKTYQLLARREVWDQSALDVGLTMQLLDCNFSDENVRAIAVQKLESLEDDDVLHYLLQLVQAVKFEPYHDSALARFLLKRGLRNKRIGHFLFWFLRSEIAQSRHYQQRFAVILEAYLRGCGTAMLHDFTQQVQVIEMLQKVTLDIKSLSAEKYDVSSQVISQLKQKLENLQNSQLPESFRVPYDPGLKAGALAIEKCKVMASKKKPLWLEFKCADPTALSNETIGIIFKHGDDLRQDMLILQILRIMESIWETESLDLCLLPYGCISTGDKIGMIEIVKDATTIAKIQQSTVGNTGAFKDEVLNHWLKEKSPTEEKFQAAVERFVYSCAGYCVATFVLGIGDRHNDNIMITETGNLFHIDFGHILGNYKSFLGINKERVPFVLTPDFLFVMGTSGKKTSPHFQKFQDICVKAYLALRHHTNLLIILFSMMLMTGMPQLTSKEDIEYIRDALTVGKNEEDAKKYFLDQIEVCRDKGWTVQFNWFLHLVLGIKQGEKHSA
T1 sequence (P42336 whole entry): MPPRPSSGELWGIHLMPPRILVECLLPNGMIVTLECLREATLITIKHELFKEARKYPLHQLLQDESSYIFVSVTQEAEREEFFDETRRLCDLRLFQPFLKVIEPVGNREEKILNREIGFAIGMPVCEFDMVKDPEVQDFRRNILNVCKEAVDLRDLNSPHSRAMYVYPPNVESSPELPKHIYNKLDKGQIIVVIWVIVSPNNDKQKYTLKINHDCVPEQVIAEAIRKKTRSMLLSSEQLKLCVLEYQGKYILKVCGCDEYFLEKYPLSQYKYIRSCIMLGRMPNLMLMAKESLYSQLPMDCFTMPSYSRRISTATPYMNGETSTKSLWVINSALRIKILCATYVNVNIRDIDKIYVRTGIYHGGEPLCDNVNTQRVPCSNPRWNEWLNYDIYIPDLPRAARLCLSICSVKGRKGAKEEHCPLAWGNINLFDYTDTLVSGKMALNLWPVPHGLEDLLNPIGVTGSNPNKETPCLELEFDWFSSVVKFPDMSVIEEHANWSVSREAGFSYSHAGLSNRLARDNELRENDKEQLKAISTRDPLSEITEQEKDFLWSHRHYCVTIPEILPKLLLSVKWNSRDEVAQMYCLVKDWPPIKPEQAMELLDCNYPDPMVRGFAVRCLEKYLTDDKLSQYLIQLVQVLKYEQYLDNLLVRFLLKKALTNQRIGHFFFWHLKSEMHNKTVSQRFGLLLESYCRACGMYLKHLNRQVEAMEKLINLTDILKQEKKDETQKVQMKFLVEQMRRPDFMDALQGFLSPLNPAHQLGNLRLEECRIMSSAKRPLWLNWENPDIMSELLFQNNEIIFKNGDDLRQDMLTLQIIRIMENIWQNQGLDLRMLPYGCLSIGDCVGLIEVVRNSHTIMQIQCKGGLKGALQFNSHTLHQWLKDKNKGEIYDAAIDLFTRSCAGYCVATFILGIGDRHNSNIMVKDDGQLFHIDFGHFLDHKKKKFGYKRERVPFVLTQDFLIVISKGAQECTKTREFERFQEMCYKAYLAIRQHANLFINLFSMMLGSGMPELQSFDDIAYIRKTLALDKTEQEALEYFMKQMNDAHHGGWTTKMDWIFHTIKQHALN
T1 sequence (P27986 whole entry partner): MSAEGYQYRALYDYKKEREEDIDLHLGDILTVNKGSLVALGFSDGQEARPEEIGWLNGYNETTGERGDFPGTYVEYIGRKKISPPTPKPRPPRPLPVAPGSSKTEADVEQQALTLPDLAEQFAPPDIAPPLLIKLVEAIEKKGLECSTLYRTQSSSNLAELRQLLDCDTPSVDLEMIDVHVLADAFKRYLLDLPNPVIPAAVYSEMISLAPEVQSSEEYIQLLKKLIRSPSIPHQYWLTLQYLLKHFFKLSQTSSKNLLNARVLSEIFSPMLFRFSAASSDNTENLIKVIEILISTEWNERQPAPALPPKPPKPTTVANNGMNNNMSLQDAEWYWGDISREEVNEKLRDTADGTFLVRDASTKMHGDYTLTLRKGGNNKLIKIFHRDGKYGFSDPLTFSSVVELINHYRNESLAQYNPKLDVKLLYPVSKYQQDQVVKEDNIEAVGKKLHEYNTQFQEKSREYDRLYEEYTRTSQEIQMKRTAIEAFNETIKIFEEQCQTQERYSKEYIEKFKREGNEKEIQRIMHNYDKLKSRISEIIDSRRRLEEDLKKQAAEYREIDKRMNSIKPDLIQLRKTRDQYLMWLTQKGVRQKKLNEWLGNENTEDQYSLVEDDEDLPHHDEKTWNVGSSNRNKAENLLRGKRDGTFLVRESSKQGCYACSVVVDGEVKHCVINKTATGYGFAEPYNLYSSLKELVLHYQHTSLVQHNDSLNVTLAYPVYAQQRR

Turning to `Cc1nn(-c2ccnc(Nc3ccc(-c4csc5c(=O)cc(N6CCOCC6)oc45)cc3)n2)cc1CN1CCC1` [Compound 3, 3-[p-(4-{4-[(1-Azetidinyl)methyl]-3-methyl-1H-pyrazol-1-yl}-2-pyrimidinylamino)phenyl]-5-morpholino-4-oxa-1-thia-7-indenone], the “CD4+ T cells (% of CD3+ T cells)” value with T cells in LLC tumors (LLC tumor) was 23 ± 7, % of CD3+ T cells; in the assay on T cells in CT26 tumors (CT26 tumors, flow cytometry, mean±SEM, n=3, vehicle 56 ± 5.29), 9.5 ± 0.7 % of CD3+ T cells. The “CD8+ T cells (% of CD3+ T cells)” value in the assay with T cells in LLC tumors (LLC tumor) is recorded as 34 ± 1.1, % of CD3+ T cells; in the assay on T cells in CT26 tumors (CT26 tumors, flow cytometry, mean±SEM, n=3, vehicle 56 ± 3.9) it was 62 ± 2.0 % of CD3+ T cells. Also, in the assay on T cells in LLC tumors (LLC tumor, vs vehicle), the “decrease of CD4+ cells” value worked out at 50%. The “increase of CD8+ T cells in the tumor compartment” value in the assay with T cells in LLC tumors (vs vehicle) turned out to be 7%; in the assay with T cells in CT26 tumors (CT26, 3 mg/kg IP QD 14 days, CD3+/CD8+, vs vehicle) it was 800%; in the assay with T cells in CT26 tumors (setting [1]), 6%. Besides, the IC50 against PI3K α was 100 to 1000 nM; against PI3K γ it was 5000 to 50000 nM. The “decrease of CD4+ T cells” value in the assay with T cells in CT26 tumors (setting [1]) turned out to be 5.6 fold. Also, the “CD3+ T cells (% of live cells)” value with T cells in CT26 tumors (CT26 tumors, Compound 3 3 mg/kg IP QD 14 days, vehicle 1.1 ± 0.29) is on record as 8 ± 0.46 % of live cells. Moreover, the “CT26 tumor growth suppression” value in the assay on CT26 tumors (Balb/c mice, 3 mg/Kg, n=6, vs vehicle) is reported as 88%. For the same compound, the “% Growth inhibition compared to control” value in the assay with CT26 tumors (CT26 subcutaneous in Balb/c mice, 3 mg/Kg Compound 3, 200 ug anti-PDL1 or both, n=6) is recorded as 88 ± 10%. For the same compound, the “% Growth inhibition of CT26 tumor” value in the assay with CT26 tumors (immunocompetent Balb/c mice, vs vehicle) is 58% and 58 +/− 10%. Further, the “CT26 tumor growth, combination” value in the assay with CT26 tumors (in combination with anti-PDL1 antibody) was “decrease in tumor growth”.
